Data on four compounds can be found in US5028613A, “Novel pyrroloquinoline alkaloids and methods of use” (Repligen Corporation, priority 1990, dated 1991).

One test relates to C. albicans. The experiment in a line: C. albicans MIC (microtiter broth dilution). Type of test: cell-based, Candida albicans (ATCC strain 44506). To be noted: Candida albicans, read-out: C. albicans MIC. As to the method: (§1) All media were autoclaved at 121° C. for 15 minutes. Candida albicans: C. albicans (ATCC strain 44506) was grown on Sabouraud dextrose agar to produce single colonies, one of which was used to inoculate Sabouraud dextrose broth. The broth was incubated at 37° C. with shaking at 200 rpm for 18 hours. The resultant culture was brought to 10% (v/v) glycerol, frozen at -80° C., and used as the inoculum for the anti-Candida assay. Aspergillus nidulans: A. nidulans (ATCC strain 36321) was grown from a spore stock on the surface of a YAG plate (YAG: yeast extract 0.5%; glucose 2%; agar 2%) at 30° C. until the colony sporulated; at this point the colony was green (usually within one week). Spores were harvested by washing with 0.1% (v/v) TRITON™ X-100. Spores were then washed with distilled water before freezing at -80° C. in the presence of 10% (v/v) glycerol. Bacillus subtilis: Standard spore stocks (ATCC strain 6633) were purchased from Difco (#0453-36-0). Escherichia coli: The BMR strain was used. This was grown overnight with shaking at 37° C. in nutrient broth and frozen in 1 mL aliquots in the presence of 10% (v/v) glycerol at -80° C. Pseudomonas aeruginosa: (ATCC strain 27853) Grown and stored as described for E. coli.
Two-fold dilutions of the drug/extract were prepared in 50 μL volumes of a suitable solvent using 96-well microtiter plates. A 25% mixture of MeOH in water was generally used; however, EtOH, 5% EtOAc in EtOH, DMSO, or other compatible solvents could be substituted if necessary. In a separate 96-well plate, 35 μL volumes of either Sabouraud dextrose broth or RPMI-1640 were placed in each well. The drug/extract (5 μL) was then transferred to the broth using a 12-place pipettor. An inoculum of C. albicans in the appropriate medium was added to give a cell density of 1000 cells/mL and a total volume of 50 μL. […] SDB plates were incubated at 37° C. overnight, RPMI-1640 plates were incubated at 37° C. in a humidified atmosphere of 10% CO2.
Background: In broth dilution the organism is exposed to a series of concentrations in liquid medium.

Test [1] relates to P388 murine leukemia cells. The experiment in a line: P388 mouse leukemia cell antiproliferative assay (MTT). It counts as cell-based. To be noted: 48 hour exposure. As to the method: P388 murine leukemia cells obtained from Dr. J. Mayo, National Cancer Institute, Bethesda, Md., were maintained in Roswell Park Memorial Institute medium 1640 (RPMI-1640) supplemented with 10% horse serum and cultured in plastic tissue culture flasks and kept in an incubator at 37° C. in humidified air containing 5% CO2. Antibiotic-free stock cultures of P388 cells were subcultured to 10^5 cells/ml by dilutions in fresh growth medium at 2 to 5 day intervals.
(§2) To assess the antiproliferative effects of agents against P388 cells, 200 μl cultures (96-well tissue culture plates, Nunc, Denmark) were established at 1×10^5 cells/ml in drug-free medium containing agents at various concentrations. After 48 hour exposures, P388 cells were enumerated using 3-[4,5-dimethylthiazol-2-yl]-2,5-diphenyltetrazolium bromide (MTT) as described below.
(§3) To quantitate the effects of agents on cell proliferation, 75 μl warm growth medium containing 5 mg/ml MTT was added to each well. Cultures were returned to the incubator and left undisturbed for 90 minutes. To spectrophotometrically quantitate formation of reduced formazan, plates were centrifuges (900 g, 5 minutes), culture fluids were removed by aspiration, and 200 μl of acidified isopropanol (2 ml concentrated HCl/L isopropanol) added per well. The absorbance of the resulting solutions were measured at 570 nm with a plate reader (MR700 Microplate Reader, Dynatech Laboratories, Chantilly, Va.). […] A linear relationship between P388 cell number and formazan production was found over the range of cell densities observed in this study.

In a further test the test system is B. subtilis. As to the kind of experiment: B. subtilis growth inhibition (disc diffusion assay). Type of test: cell-based, Bacillus subtilis (ATCC strain 6633). To be noted: result in words. As for the experimental part:
as §1, with “This was grown overnight with shaking at 37° C. in nutrient broth and frozen in 1 mL aliquots in the presence of 10% (v/v) glycerol at -80° C. Pseudomonas aeruginosa: (ATCC strain 27853) Grown and stored as described for E. coli.” left out
Paper discs (6.35 mm) were impregnated with the test substance and allowed to dry. […] Plates were incubated overnight (C. albicans, B. subtilis, E. coli, and P. aeruginosa 37° C.; and A. nidulans 30° C.) after which time the zones of growth inhibition could be read. These are expressed as the diameter of the zone in millimeters. […]
On the technique in general: A growth-free zone around the sample is the usual read-out of agar diffusion tests.

The test system of a further test is HT29 cell line. The experiment in a line: HT29 cell assay (analogous MTT procedure). It counts as cell-based. To be noted: Homo sapiens, HT-29; procedure analogous to P388. As to the method: as §2, §3
(§4) Analogous procedures were followed for the A549 and HT29 cell lines.

The test system of another test is A549 cell line. The experiment in a line: A549 cell assay (analogous MTT procedure). Type of test: cell-based. The settings on record: Homo sapiens, procedure analogous to P388. As for the experimental part:
as §2, §3, §4

Setting [2] is: lowest concentration completely inhibiting growth.

Values after ≈ are worked out from the molar mass of the structure shown. Read-outs that look alike come from different tables or passages of the source.

The MIC is the least concentration at which growth counts as inhibited. For orientation: IC50 means the concentration at which inhibition is half-maximal. As for `CSc1c2c3c(n1C)C(=O)C(N)=C(Cl)C3=NCC2` [Isobatzelline A], the minimum inhibitory concentration (MIC) in the test with C. albicans (setting [2]) was 3.1 µg/mL (≈ 11 µM). Besides, the concentration for half-maximal inhibition (IC50) worked out at 0.42 µg/mL (≈ 1.49 µM) in test [1], 0.44 µg/mL (≈ 1.56 µM) with HT29 cell line and 0.07 µg/mL (≈ 0.248 µM) in the test on A549 cell line. In addition, the “inhibition of the growth of B. subtilis” value in the test with B. subtilis is reported as “inhibit the growth of B. subtilis”.
`CSc1c2c3c(n1C)C(=O)C(N)=CC3=NCC2` [Isobatzelline B]: the minimal inhibitory concentration (MIC) in the test on C. albicans (setting [2]) stood at 25 µg/mL (≈ 101 µM). In addition, the IC50 came out at 2.6 µg/mL (≈ 10.5 µM) in test [1], 2.5 µg/mL (≈ 10.1 µM) with HT29 cell line and 2.8 µg/mL (≈ 11.3 µM) with A549 cell line.
On to `Cn1cc2c3c1C(=O)C(N)=C(Cl)C3=NCC2` [Isobatzelline C], for which the minimum inhibitory concentration (MIC) in the test on C. albicans was determined as 50 µg/mL (≈ 212 µM). Besides, the 50% inhibitory concentration (IC50) in test [1] is 12.6 µg/mL (≈ 53.5 µM); in the test on HT29 cell line it was 10 µg/mL (≈ 42.4 µM); with A549 cell line, more than 20 µg/mL.
On to `CSc1c2ccnc3c2c(n1C)C(=O)C(N)=C3Cl` [Isobatzelline D], for which the minimum inhibitory concentration (MIC) with C. albicans (setting [2]) came to 25 µg/mL (≈ 89.4 µM). For the same compound, the figures for the concentration for half-maximal inhibition (IC50) (in test [1]; with HT29 cell line; in the test with A549 cell line) were 20 µg/mL (≈ 71.5 µM), more than 20 µg/mL and more than 20 µg/mL, respectively.
